# Tested on: S aureus A798
# Experiment: Minimal inhibitory concentration (MIC), microdilution method in cation-adjusted Mueller-Hinton Broth following NCCLS guidelines
# Type: cell-based
# Conditions: pH of test medium 7.2-7.3
# Procedure, shortened: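 MICs (mg/l) came from NCCLS-guided microdilution, using cation-adjusted Mueller-Hinton medium adjusted to pH 7.2-7.3.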
MIC [µg/mL],MIC S aureus A798,Compound
≤ 0.031,–,"COc1ccc2nccc(N3CCN(C[C@@H]4CN(c5ccccc5)C(=O)O4)CC3)c2n1 [Example 12, (R)-5-[4-(6-Methoxy-[1,5]naphthyridin-4-yl)-piperazin-1-ylmethyl]-3-phenyl-oxazolidin-2-one]"
≤ 0.031,–,"COc1ccc2ncc(F)c(N3CCC(N(C)C[C@@H]4CN(c5ccc6c(c5)NC(=O)CS6)C(=O)O4)CC3)c2n1 [Example 124, 6-[(R)-5-({[1-(3-Fluoro-6-methoxy-[1,5]naphthyridin-4-yl)-piperidin-4-yl]-methyl-amino}-methyl)-2-oxo-oxazolidin-3-yl]-4H-benzo[1,4]thiazin-3-one]"
≤ 0.031,–,"COc1ccc2nccc(N3CCN(C[C@@H]4CN(c5ccc6c(c5)OCCO6)C(=O)O4)CC3)c2n1 [Example 9, (R)-3-(2,3-Dihydro-benzo[1,4]dioxin-6-yl)-5-[4-(6-methoxy-[1,5]naphthyridin-4-yl)-piperazin-1-ylmethyl]-oxazolidin-2-one]"
0.25,–,"COc1ccc2nccc(N3CC(N(C)C[C@@H]4CN(c5ccc(F)c(Cl)c5)C(=O)O4)C3)c2n1 [Example 136, (R)-3-(3-Chloro-4-fluoro-phenyl)-5-({[1-(6-methoxy-[1,5]naphthyridin-4-yl)-azetidin-3-yl]-methyl-amino}-methyl)-oxazolidin-2-one]"
0.125,–,"COc1ccc2nccc(N3CCN(C[C@@H]4CN(c5cccc(N(C)C)c5)C(=O)O4)CC3)c2n1 [Example 34, (R)-3-(3-Dimethylamino-phenyl)-5-[4-(6-methoxy-[1,5]naphthyridin-4-yl)-piperazin-1-ylmethyl]-oxazolidin-2-one]"
–,<=0.031 mg/l,"COc1ccc2nccc(N3CC4C(C3)C4NC[C@@H]3CN(c4ccc5c(c4)NC(=O)CS5)C(=O)O3)c2n1 (stereo partly drawn) [Example 89, 6-((R)-5-{[(1α,5α,6α)-3-(6-Methoxy-[1,5]naphthyridin-4-yl)-3-aza-bicyclo[3.1.0]hex-6-ylamino]-methyl}-2-oxo-oxazolidin-3-yl)-4H-benzo[1,4]thiazin-3-one]"
0.125,–,"O=C1CSc2ccc(N3C[C@@H](CN[C@@H]4CCN(c5ccnc6ccc(F)cc56)C4)OC3=O)cc2N1 [Example 177, 6-((R)-5-{[(R)-1-(6-Fluoro-quinolin-4-yl)-pyrrolidin-3-ylamino]-methyl}-2-oxo-oxazolidin-3-yl)-4H-benzo[1,4]thiazin-3-one]"
≤ 0.031,–,"COc1ccc2ncc(F)c(N3CC[C@H](NC[C@@H]4CN(c5ccc6c(c5)NC(=O)CO6)C(=O)O4)C3)c2n1 [Example 64, 6-((R)-5-{[(S)-1-(3-Fluoro-6-methoxy-[1,5]naphthyridin-4-yl)-pyrrolidin-3-ylamino]-methyl}-2-oxo-oxazolidin-3-yl)-4H-benzo[1,4]oxazin-3-one]"
0.063,–,"COc1ccc2nccc(N3C[C@@H]4C[C@H]3CN4C[C@@H]3CN(c4ccc5c(c4)NC(=O)CO5)C(=O)O3)c2n1 [Example 151, 6-{(R)-5-[(1S,4S)-5-(6-Methoxy-[1,5]naphthyridin-4-yl)-2,5-diaza-bicyclo[2.2.1]hept-2-ylmethyl]-2-oxo-oxazolidin-3-yl}-4H-benzo[1,4]oxazin-3-one]"
0.25,–,"COc1ccc2nccc(N3C[C@@H](O)[C@H](NC[C@@H]4CN(c5ccc6c(c5)OCCO6)C(=O)O4)C3)c2n1 (relative stereo) [Example 77, (R)-3-(2,3-Dihydro-benzo[1,4]dioxin-6-yl)-5-{[(3R*,4R*)-4-hydroxy-1-(6-methoxy-[1,5]naphthyridin-4-yl)-pyrrolidin-3-ylamino]-methyl}-oxazolidin-2-one]"
1,–,"COc1ccc2nccc(N3CCN(C[C@@H]4CN(c5ccc(OC)c(Cl)c5)C(=O)O4)CC3)c2n1 [Example 28, (R)-3-(3-Chloro-4-methoxy-phenyl)-5-[4-(6-methoxy-[1,5]naphthyridin-4-yl)-piperazin-1-ylmethyl]-oxazolidin-2-one]"
2,–,"COc1ccc2nccc(N3CCN(C[C@@H]4CN(c5ccc(OC)c(OC)c5)C(=O)O4)CC3)c2n1 [Example 14, (R)-3-(3,4-Dimethoxy-phenyl)-5-[4-(6-methoxy-[1,5]naphthyridin-4-yl)-piperazin-1-ylmethyl]-oxazolidin-2-one]"
